pIC50: −log10 of the molar value. Like-named read-outs stand apart in the source and are kept apart here.
Assays:
[1] = target: T1, MAO-A (Mus musculus, UniProt Q64133); test: Cerebral MAO-A activity, mitochondria-enriched mouse brain fraction (kynuramine, fluorimetric); assay type: biochemical; details: for Concentrations with significant inhibition of MAO-A activity: tested 25–200 μM, Dunnett vs control
T1 construct: Mitochondria-enriched brain preparations were obtained in accordance with established methodology outlined in literature; from tissue; host or cells: mouse brain, mitochondria-enriched fraction
T1 sequence (Q64133 1-526): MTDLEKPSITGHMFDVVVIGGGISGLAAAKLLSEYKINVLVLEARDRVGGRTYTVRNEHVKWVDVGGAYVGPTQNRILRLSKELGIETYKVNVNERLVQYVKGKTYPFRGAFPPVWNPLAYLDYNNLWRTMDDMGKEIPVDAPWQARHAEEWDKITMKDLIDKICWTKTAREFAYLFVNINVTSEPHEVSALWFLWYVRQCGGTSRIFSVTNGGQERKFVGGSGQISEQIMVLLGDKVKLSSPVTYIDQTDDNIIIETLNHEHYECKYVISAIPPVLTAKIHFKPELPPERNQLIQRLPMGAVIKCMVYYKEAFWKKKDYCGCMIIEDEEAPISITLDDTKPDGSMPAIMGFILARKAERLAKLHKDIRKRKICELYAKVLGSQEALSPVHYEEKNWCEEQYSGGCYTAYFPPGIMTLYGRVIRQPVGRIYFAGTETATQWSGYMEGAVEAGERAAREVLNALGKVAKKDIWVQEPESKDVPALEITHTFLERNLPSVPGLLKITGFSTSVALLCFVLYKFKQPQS
Experimental: Mitochondria-enriched brain preparations were obtained in accordance with established methodology outlined in literature. The homogenate was prepared using the mouse brain tissue and a homogenization buffer (Na2PO4/KH2PO4/sucrose) at a ratio of 1:4 (w/v). The homogenate was centrifuged at 900g at 4 °C for 5 min. The resulting supernatant was separated and subjected to centrifugation at 12,500g for 15 min. The resulting pellet was resuspended in the homogenization buffer and subjected to a further round of centrifugation under identical conditions. Finally, the mitochondrial pellet obtained was reconstituted in an assay buffer solution (Na2PO4/KH2PO4/KCl). Protein concentration was estimated using the Bradford method and standardized as 1 mg/mL for the experiments.
MAO activity was assessed following the method outlined by Krajl, with some modifications by Matsumoto. Briefly, a 100 μL aliquot of the mitochondria-rich fraction was incubated at 37 °C for 5 min with specific MAO inhibitors: clorgyline (250 nM, a MAO-A inhibitor), or pargyline (250 nM, a MAO-B inhibitor). Then, 10 μL of each compound was introduced at varying concentrations (25–200 μM). Water (10 μL) was used in the control tubes. Afterward, the substrate, 20 μL of kynuramine dihydrobromide, was added to achieve a final concentration of 90 μM for MAO-A and 60 μM for MAO-B. The samples were incubated at 37 °C for 30 min. The reaction was halted by the addition of 300 μL of 10% trichloroacetic acid (TCA). After centrifuging at 16,000g for 15 min, an aliquot of 800 μL of the supernatant was mixed with 1 mL of 1 M sodium hydroxide (NaOH). The samples were measured using a fluorimeter with excitation at 315 nm and emission at 380 nm.

[2] = test system: female Swiss mice; test: Acute oral toxicity, OECD Protocol 423 Acute Toxic Class Method; assay type: in vivo, mouse; details: for Food intake vs control: 50 mg/kg or 300 mg/kg; for Food intake vs control / Physical signs / Animal mortality: 14 days; for Plasma ALT activity / Plasma urea levels / Physical signs / Animal mortality: 50 and 300 mg/kg; for Physical signs / Animal mortality: gavage, female mice; for Animal mortality: single dose
Experimental: The evaluation of the acute toxicity of compounds 3A and 3B via oral administration was conducted in female Swiss mice, following the guidelines outlines in Protocol 423–OECD. The acute oral toxicity study of compound 3C was previously conducted by our research group, showing low toxicity and therefore was not evaluated here.
The animals were divided into 3 experimental groups (n = 6 mice/group) for each dosage testing: (I) Control, (II) Compound 3A, and (III) Compound 3B. Both compounds (3A and 3B) were administered at a single dose of 50 or 300 mg/kg via gavage, while control animals received water (vehicle). This high dose (300 mg/kg) was fractionated into three oral administrations of 100 mg/kg at a volume of 10 mL/kg with an interval of 30 min each. Over a period of 14 days, water and food consumption were monitored. In addition, changes in body weight and behavioral parameters such as lethargy, piloerection, and diarrhea were observed. Following this evaluation period, locomotion and exploration of the animals were assessed using the OFT. Subsequently, the animals were euthanized by an overdose of isoflurane, and blood, brain, liver, and kidney samples were collected for ex vivo analysis.
Blood plasma was used to assess liver and kidney function markers by quantifying the activity of AST and ALT, as well as urea levels, using commercially available kits (LABTEST; BIOCLIN). The brain, liver and kidneys were employed to investigate potential oxidative damage to lipids as a toxicity parameter utilizing the TBARS technique.
The aim of this behavioral test is to assess the locomotion and exploration behavior of the animals using an open field apparatus measuring 30 cm × 30 cm × 15 cm, constructed from plywood with a floor divided into nine quadrants, facilitating free movement for the animals. During the OFT, the animals were positioned in the center of the apparatus and subjected to a 5 min testing period, following the protocol outlined in literature. The number of quadrant crossings and rearings was recorded and quantified during testing phase.

[3] = test system: protein carbonylation; test: Protein carbonylation assay, SNP-induced, brain homogenate; assay type: biochemical, mouse; details: for pIC50: mouse brain homogenate, SNP-induced, 25–200 μM; for Concentrations effective in reducing SNP-induced protein carbonylation: tested 25–200 μM
Experimental: Brains from mice of both sexes were used for in vitro assays, each performed in duplicate across three independent experiments (n = 3), conducted on different days.
The evaluation of protein carbonylation was performed according to a previously established protocol, using freshly prepared brain homogenate diluted at a 1:8 ratio in Tris-HCl buffer. Test compounds (10 μL), ranging in concentrations from 25 to 200 μM, were individually introduced into separate test tubes. Trolox (100 μM) served as the standard antioxidant. The diluted brain homogenate (940 μL) was then added to all tubes, followed by SNP (1 mM) as the inducing oxidative agent (50 μL). The tubes were promptly incubated at 37 °C for 2 h. Following incubation, 2 M HCl was added to blank tubes (200 μL), while 10 mM 2,4-dinitrophenyl-hydrazine (DNPH) solution was added to test tubes (200 μL). The mixture was incubated for 1 h in darkness at room temperature, with intermittent stirring every 15 min to facilitate the color reaction. Subsequently, 500 μL of denaturation buffer, 1.5 mL of ethanol, and 1.5 mL of hexane were added to all tubes, which were then vigorously shaken for 40 s. The tubes were then centrifuged at 900g for 15 min, and the supernatant was carefully decanted. The resulting pellet was washed twice with 1 mL of ethanol/ethyl acetate solution (1:1). After allowing the pellet to dry air for 2 min, it was resuspended in 1 mL of denaturation buffer and subjected to spectrophotometric analysis at 370 nm. The findings were quantified as nmol carbonyl per gram of tissue.

Row | Compound | pIC50 [1] | Concentrations with significant inhibition of MAO-A activity [1] | Body weight at the last measurement (last day) vs control ([2]; 50 mg/kg) | Plasma AST activity ([2]; 50 mg/kg) | Water consumption vs control ([2]; 50 mg/kg) | Food intake vs control [2] | Water consumption vs control ([2]; 300 mg/kg) | Plasma ALT activity [2] | Plasma urea levels [2] | Physical signs [2] | Animal mortality [2] | pIC50 [3] | Concentrations effective in reducing SNP-induced protein carbonylation [3] | pIC50 ([1]; mouse brain mitochondria-rich fraction, 25–200 μM, kynuramine 90 μM, read-out: IC50 for MAO-A) | Ex vivo lipid peroxidation (TBARS) in liver ([2]; 50 mg/kg) | Ex vivo lipid peroxidation (TBARS) in liver ([2]; 300 mg/kg) | Plasma AST activity ([2]; 300 mg/kg)
1 | O=C(C[n+]1ccccc1C[Se]c1ccccc1)c1ccccc1.[Br-] [Compound 3A, 1-(2-oxo-2-phenylethyl)-2-((phenylselanyl)methyl)pyridin-1-ium bromide] | 3.62 | ≥ 50 µM | reduction in body weight | did not affect AST activity | decreased | ate similar to the control group | no significant difference | remained unchanged | remained similar | did not indicate any observable changes | no instances of animal mortality | 3.89 | all concentrations | – | – | – | –
2 | Cc1ccc(C(=O)C[n+]2ccccc2C[Se]c2ccccc2)cc1 [Compound 3B, 1-(2-oxo-2-(p-tolyl)ethyl)-2-((phenylselanyl)methyl)pyridin-1-ium bromide] | – | all concentrations tested | did not differ significantly | did not affect AST activity | – | ate similar to the control group | no significant difference | remained unchanged | remained similar | did not indicate any observable changes | no instances of animal mortality | 3.64 | 200 µM | 4.13 | an increase in damage was observed | not evident at the higher dose | an increase was observed

— PMC12498411, “Antidepressant-like Properties of a Selenium-Containing Pyridinium Salt Explored through In Vitro, In Vivo, and In Silico Approaches” (ACS Chemical Neuroscience, 2025)
